Results as given in patent publication US5734014A, “Elafin derivative” (Tsumura & Co., priority 1992, dated 1998).

Legend:
endotoxin-treated mice = experiment: Test 3: survival rate in mouse endotoxin shock model; type: in vivo, ICR male mice; conditions: test substance i.v. four times, survivors/10 mice
Description: Using a mouse endotoxin shock model, effects of the elafin derivative according to this invention on the survival rate were investigated while using natural elafin and urinastatin, which is a urinary trypsin inhibitor having anti-elastase action, as comparative substances. After endotoxin was administered at 6 mg/Kg to the caudal veins of ten 7 weeks-old ICR male mice (CHARLES RIVER JAPAN, INC.) in each group, the mice were administered with one of the test substance. Their survival rate was observed along the passage of time. The test substance was administered to the caudal veins of the mice four times in total, that is, 10 minutes before the administration of endotoxin and 3 hours, 6 hours and 12 hours after its administration.
Employed as the test substances were natural elafin, the elafin derivative according to the present invention in which the methionine at the 25th had been modified to leucine (hereinafter called "L-elafin") and urinastatin ("MIRACLID"™;product of MOCHIDA PHARMACEUTICAL CO., LTD.; hereinafter called "UTI").
Natural elafin and L-elafin were each dissolved in a buffer of 20 mM sodium acetate physiological saline, in which 1% bovine serum albumin had been added, whereas UTI was dissolved in the physiological saline.
As a control, a buffer of 20 mM sodium acetate physiological saline, in which 1% bovine serum albumin had been added, was used.

elastase = experiment: Elastase inhibiting activity of purified recombinant elafin (Referential Examples 1 and 2); type: biochemical; conditions: elafin produced by Escherichia coli, purified by reverse phase HPLC
neutrophilic elastase = biological target: T1, neutrophilic elastase (Homo sapiens, UniProt P08246); experiment: Test 1: neutrophilic elastase inhibiting activity of non-oxidized and oxidized elafins (AAPV-pNA substrate); type: biochemical
T1 construct: purchased Elastin Products Co., Inc
T1 sequence (P08246 30-267): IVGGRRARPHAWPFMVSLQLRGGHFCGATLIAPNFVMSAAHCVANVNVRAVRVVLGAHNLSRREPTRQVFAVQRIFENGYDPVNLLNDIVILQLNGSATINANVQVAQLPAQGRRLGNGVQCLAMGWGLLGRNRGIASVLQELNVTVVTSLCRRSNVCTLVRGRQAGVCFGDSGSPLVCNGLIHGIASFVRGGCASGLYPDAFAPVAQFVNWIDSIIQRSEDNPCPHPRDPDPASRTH
Description: Natural elafin and the elafin derivatives were oxidized, and variations in their inhibiting activity against neutrophilic elastase were investigated. Oxidative reaction solutions of natural elafin and the elafin derivatives as elastase inhibitors were each prepared by adding 220 μM of H2 O2 and 6 nM of myeloperoxidase (product of Elastin Products Co., Ltd.) to 250 μl of a phosphate buffer (product of TAKARA SHUZO CO., LTD.) which contained 5 μg of the corresponding elafin or elafin derivative, incubating the resulting mixture at 37° C. for 20 minutes and then adding the same volume of a reaction terminating solution (catalase 0.2 mg/ml, 5 mM methionine).
Further, the measurement of elastase activity was conducted as will be described below by using 5-100 μl of the oxidative reaction solution (inhibitor concentration: 10 μg/ml) of natural elafin and the elafin derivatives prepared as described above.

[1] = 12 hrs after administration of endotoxin (6 mg/Kg, caudal vein)
[2] = 14 hrs after administration of endotoxin (6 mg/Kg, caudal vein)
[3] = 16 hrs after administration of endotoxin (6 mg/Kg, caudal vein)
[4] = 18 hrs after administration of endotoxin (6 mg/Kg, caudal vein)
[5] = 20 hrs after administration of endotoxin (6 mg/Kg, caudal vein)
[6] = 22 hrs after administration of endotoxin (6 mg/Kg, caudal vein)
[7] = 24 hrs after administration of endotoxin (6 mg/Kg, caudal vein)
[8] = 26 hrs after administration of endotoxin (6 mg/Kg, caudal vein)
[9] = 28 hrs after administration of endotoxin (6 mg/Kg, caudal vein)
[10] = 30 hrs after administration of endotoxin (6 mg/Kg, caudal vein)
[11] = 36 hrs after administration of endotoxin (6 mg/Kg, caudal vein)
[12] = 48 hrs after administration of endotoxin (6 mg/Kg, caudal vein)

Substance | Survival rate (endotoxin-treated mice; [1]) | Survival rate (endotoxin-treated mice; [2]) | Survival rate (endotoxin-treated mice; [3]) | Survival rate (endotoxin-treated mice; [4]) | Survival rate (endotoxin-treated mice; [5]) | Survival rate (endotoxin-treated mice; [6]) | Survival rate (endotoxin-treated mice; [7]) | Survival rate (endotoxin-treated mice; [8]) | Survival rate (endotoxin-treated mice; [9]) | Survival rate (endotoxin-treated mice; [10]) | Survival rate (endotoxin-treated mice; [11]) | Survival rate (endotoxin-treated mice; [12]) | elastase inhibiting activity (elastase) | stability to oxidation (neutrophilic elastase; general statement of the inventors' findings) | variation in inhibiting activity against neutrophilic elastase by oxidation (neutrophilic elastase; oxidized with 220 μM H2O2 and 6 nM myeloperoxidase, 37° C., 20 minutes, FIG. 3)
Natural elafin: 57-residue elastase inhibitor isolated from psoriatics (SEQ ID NO:2); produced recombinantly in Escherichia coli or yeast (AQEPVKGPVSTKPGSCPIILIRCAMLNPPNRCLKDTDCPGIKKCCEGSCGMACFVPQ) | 10/10 | 10/10 | 9/10 | 8/10 | 5/10 | 5/10 | 3/10 | 2/10 | 1/10 | 0/10 | 0/10 | 0/10 | strong inhibiting activity | unstable to oxidation | significantly decrease
Reduced elafin: elafin in the completely reduced form, before formation of S--S bonds (AQEPVKGPVSTKPGSCPIILIRCAMLNPPNRCLKDTDCPGIKKCCEGSCGMACFVPQ) |  |  |  |  |  |  |  |  |  |  |  |  | did not show any inhibiting activity |  | 
urinastatin (MIRACLID) [UTI, product of MOCHIDA PHARMACEUTICAL CO., LTD] | 10/10 | 10/10 | 8/10 | 8/10 | 4/10 | 4/10 | 2/10 | 1/10 | 0/10 | 0/10 | 0/10 | 0/10 |  |  | 
